{"source": "patent US7230139B2", "about": "“Diterpenoid compounds, compositions thereof and their use as anti-cancer or anti-fungal agents” (priority 2004, dated 2007)", "key": {"[1]": {"system": "Candida albicans strain ATCC 10231", "test": "Fungus growth inhibition (OD600)", "assay_type": "cell-based", "settings": "dilution series, YEP glucose, 30° C.; dose-dependent", "method": "Fungus cells were first cultured overnight in 10 mL of YEP glucose-containing medium at 30° C. The following day, 5 μL of the overnight culture (5–6×10^3 cells) was added to 100 μL of YEP glucose-containing medium in a 96-well microtitre plate. To these cultures a dilution series of Compound 50 was added. Compound 50 was prepared as a stock solution in 100% dimethyl sulfoxide (DMSO) at a concentration of 10 mM. Serial dilutions were prepared in distilled water. The final DMSO concentration in each well was 0.5%. Fungus cells were grown at 30° C. and cell growth was monitored by reading the OD600 (optical density at 600 nm) with a Tecan Ultra plate reader (TECAN U.S. Inc. Research Triangle Park, N.C., USA). […] Accordingly, Compound 50, an illustrative Diterpenoid Compound, is useful for inhibiting the growth of a fungus or treating a fungal infection."}, "[2]": {"system": "SW480 human colon carcinoma cancer cells", "test": "SW480 colon carcinoma xenograft in SCID mice", "assay_type": "in vivo, CB17 SCID/SCID female mice", "settings": "i.v. 10 mg/kg once a day for five days", "method": "The resultant mice are a model for a human having colon carcinoma cancer.\n(§1) The SW480 human colon carcinoma cancer cells were maintained in RPMI supplemented with 10% inactivated fetal bovine serum and 1% penicillin-streptomycin-L-Glutamine, under 5% CO2 at 37° C., and passaged twice a week. The cells were grown at a confluency lower than 70% and then collected with Trypsin (Bio-Whittaker, Md., USA). The cells were then centrifuged and washed twice using phosphate buffered saline solution (PBS) and resuspended in PBS at 1×10^6 cells per 100 μl. Viability was examined by staining with Trypan Blue and only flasks with cell viability of greater than 95% were used for in vivo studies.\nSW480 cells were transplanted subcutaneously into the flank of female CB 17 SCID/SCID mice. Each mouse was inoculated with a suspension of 1×10^6 tumor cells per 100 μL on day zero. The following five treatment groups of ten mice each were used: (a) a negative control group treated with intravenous (i.v.) injection of vehicle, (b) a group treated with i.v. injection of a Compound 50, (c) a group treated with i.v. injection of a Compound 50a, (d) a group treated with i.v. injection of Compound 50b, (e) a group treated with i.v. injection of Compound 74a.\nTreatment started on day twelve after SW480 cells transplantation and Compounds 50, 50a, 50b and 74a were administered i.v. once daily for five consecutive days at a dose of 10, 10, 10 and 50 mg/kg, respectively. Compound 50, 50a and 50b were prepared as a working solution of 1.5 mg/mL in a vehicle solution of 20% Cremaphor EL (Sigma, St. Louis, Miss., USA), and 10% Ethanol. Compound 74a was prepared as a working solution of 5 mg/mL in a vehicle solution of 5% Dextrose (Abbot Laboratories, QC, Canada). The negative control groups were treated with vehicle solution of 20% Cremaphor EL and 10% Ethanol alone.\n(§2) The mice were weighed and the tumors measured on day 12 and every 2 to 3 days after treatment commenced. Observations continued for 23 days after initial tumor implantation. The changes in body weight and in the calculated tumor volume were plotted (FIGS. 9 and 10). Statistical analysis was performed using GraphPad Prism (GraphPad Software Inc., San Diego, Calif.). Two-way ANOVA was used to determine how the treatment affected tumor growth over time. Following the two-way ANOVA, post-tests were performed using the Benferroni method to determine the statistical difference between the mean tumor-size of the two groups being compared on every day that the tumors were measured."}, "[3]": {"system": "C33A human cervical cancer cells", "test": "C33A cervical tumor xenograft in SCID mice", "assay_type": "in vivo, CB17 SCID/SCID female mice", "settings": "for Tumor growth compared to vehicle: two-way ANOVA", "method": "The resultant mice are a model for a human having cervical cancer.\nas §1, with “C33A” for “SW480”, “cervical” for “colon carcinoma”, “2×10^6” for “1×10^6”\nC33A cells were transplanted subcutaneously into the flank of female CB17 SCID/SCID mice. Each mouse was inoculated with a suspension of 2×10^6 tumor cells per 100 μL on day zero. The following six treatment groups of ten mice each were used: (a) a negative control group treated with intravenous (i.v.) injection of vehicle, (b) a negative control group treated with intraperitoneal (i.p.) injection of vehicle, (c) a positive control group treated with i.p. injection of Cisplatin, (d) a group treated with i.v. injection of a Compound 50, (e) a group treated with i.p. injection of Compound 50, and (f) a group treated with subcutaneous (s.c.) injection of Compound 50.\nTreatment started on day thirteen after C33A cells transplantation for Compound 50 treated groups and on day fourteen for Cisplatin treated group. Compound 50 was administered i.v., i.p., and s.c. once daily for five consecutive days at a dose of 10, 15 and 30 mg/kg, respectively. Compound 50 was prepared as a working solution of 1.5 mg/mL in a vehicle solution of 20% Cremaphor EL (Sigma, St. Louis, Mo., USA), 10% Ethanol and 5% Dextrose (Abbot Laboratories, QC, Canada). The negative control groups were treated with vehicle alone. The positive control group was treated once every 3 days for fifteen days at a dose of 3.5 mg/kg. Cisplatin was formulated in PBS on each day of the injection and was administered i.p.\nas §2, with “13” for “12”, “36” for “23”, “4” for “9”, “5).” for “10).”, “measured. Four animals in the negative control injected i.v. with vehicle and two animals in the group treated i.v. with Compound 50 died during the observation period. Therefore, the data collected from these animals were excluded from all calculations and the total number of animals in the groups changed to six for the negative control injected i.v. with vehicle and eight for the group treated i.v. with Compound 50.” for “measured.”"}}}
{"smiles": "COc1ccc2c(c1)C1(C)C=CC(=O)C(C)(C)C1=C(O)C2=O", "note": "(racemic) [Compound 50]", "values": [{"measurement": "Growth of Candida albicans", "setting": "[1]", "result": "significantly inhibited growth"}, {"measurement": "Tumor growth compared to vehicle", "setting": "[2]", "result": "significant reduction (p<0.001)"}, {"measurement": "Tumor growth compared to vehicle", "setting": "[3]; i.p. 15 mg/kg once a day for five days", "result": "significant reduction (p<0.001)"}, {"measurement": "Mean tumor-size compared to vehicle", "setting": "[3]; i.p., day 34 and day 36", "result": "significantly (p<0.05) smaller mean tumor-size"}, {"measurement": "Tumor growth compared to vehicle", "setting": "[3]; i.v. 10 mg/kg once a day for five days", "result": "significant reduction (p<0.001)"}, {"measurement": "Mean tumor-size compared to vehicle", "setting": "[3]; i.v. 10 mg/kg, day 36", "result": "significantly (p<0.05) smaller mean tumor-size"}, {"measurement": "Tumor growth compared to vehicle", "setting": "[3]; s.c. 30 mg/kg once a day for five days", "result": "significant reduction (p<0.001)"}, {"measurement": "Mean tumor-size compared to vehicle", "setting": "[3]; s.c., day 34 (p<0.01) and day 36 (p<0.001)", "result": "significantly smaller mean tumor-size"}]}
